This passage reports EC50 results from BindingDB's records for doi:10.7270/Q2TX3CSC (Vanderbilt Screening Center for GPCRs, Ion Channels and …, 2009).

The target of the experiment is T1, Solute carrier family 12 member 5 (Homo sapiens, UniProt Q9H2X9).
T1 sequence (Q9H2X9 whole entry): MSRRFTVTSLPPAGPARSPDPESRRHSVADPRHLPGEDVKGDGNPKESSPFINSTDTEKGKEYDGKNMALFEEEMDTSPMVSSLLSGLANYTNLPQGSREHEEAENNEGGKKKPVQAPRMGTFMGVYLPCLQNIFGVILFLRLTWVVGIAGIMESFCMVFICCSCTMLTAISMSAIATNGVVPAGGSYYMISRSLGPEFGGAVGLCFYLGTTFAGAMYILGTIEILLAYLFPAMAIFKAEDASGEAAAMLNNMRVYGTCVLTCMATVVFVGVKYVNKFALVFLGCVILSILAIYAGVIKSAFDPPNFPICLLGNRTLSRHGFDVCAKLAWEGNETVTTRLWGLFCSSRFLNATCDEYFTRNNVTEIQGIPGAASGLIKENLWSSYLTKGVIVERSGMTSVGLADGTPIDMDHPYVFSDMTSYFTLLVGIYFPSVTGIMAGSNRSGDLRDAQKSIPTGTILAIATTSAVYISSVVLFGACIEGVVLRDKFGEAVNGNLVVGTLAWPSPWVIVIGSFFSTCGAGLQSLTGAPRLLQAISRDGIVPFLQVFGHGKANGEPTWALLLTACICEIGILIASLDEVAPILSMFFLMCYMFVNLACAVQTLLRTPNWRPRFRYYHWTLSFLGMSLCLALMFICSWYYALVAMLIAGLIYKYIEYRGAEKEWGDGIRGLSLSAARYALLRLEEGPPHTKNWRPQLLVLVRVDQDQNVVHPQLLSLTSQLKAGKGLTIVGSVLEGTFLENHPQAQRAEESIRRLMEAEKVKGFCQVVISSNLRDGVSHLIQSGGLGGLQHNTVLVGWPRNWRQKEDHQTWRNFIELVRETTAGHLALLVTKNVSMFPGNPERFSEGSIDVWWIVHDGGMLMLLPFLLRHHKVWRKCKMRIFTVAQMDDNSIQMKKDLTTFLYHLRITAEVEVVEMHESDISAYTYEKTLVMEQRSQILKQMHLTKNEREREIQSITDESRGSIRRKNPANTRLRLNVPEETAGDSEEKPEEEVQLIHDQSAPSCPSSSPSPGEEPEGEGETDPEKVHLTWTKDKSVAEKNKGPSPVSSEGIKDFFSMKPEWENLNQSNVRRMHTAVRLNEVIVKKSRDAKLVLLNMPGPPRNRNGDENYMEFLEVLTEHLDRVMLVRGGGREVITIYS
As to the kind of experiment: KCC2 modulator potency by thallium flux, dose response, cell-based, HEK293 KCC2, FluoZin-2 fluorescence (AID 1736).

Where [1] appears, read: inactive by the depositor's call.

`Cc1ccc(-c2n[nH]c(=S)n2NC=CCc2ccccc2[N+](=O)[O-])cc1`: the response was half-maximal at 1.62 µM (EC50).

As to `Cc1[nH]c2ccccc2c1Cc1n[nH]c(=S)n1C`, a half-maximal response (EC50) required 6.59 µM.

In the case of `COc1cc(C=NN(C)c2ccccc2)ccc1O`, the EC50 (usually the midpoint of the concentration-response curve) was 23.8 µM.

Take `Cc1[nH]c2ccccc2c1Cc1nnc(S)o1`: the EC50 was determined as 3.21 µM.

As for `O=c1[nH]c2c(s1)C(c1ccccc1)c1c(c(O)n(-c3ccccc3)c1O)S2` (centres undefined), the concentration giving a half-maximal response (EC50) is 0.0665 µM.

`O=C(CSc1ccccc1C(=O)NCc1ccccc1)NC12CC3CC(CC(C3)C1)C2` gave an EC50 of 9.17 µM.

On to `CN(c1ccccc1)c1ccc(/C=C(\CCC(=O)O)c2nc3ccccc3s2)cc1[N+](=O)[O-]`, for which it took 8.17 µM to reach a half-maximal effect under setting [1] (EC50).

The molecule `CC(C)N1C(=O)S/C(=C/c2ccccc2OCc2ccc(C(=O)O)cc2)C1=O` gave an EC50 of 1.48 µM.

In turn, `Cc1cccc(NC2=NN=C(c3ccccc3F)CS2)c1C` displayed an EC50 of 27.9 µM.

The molecule `O=C1OC(c2ccc(O)cc2)(c2ccc(O)cc2)c2ccccc21` showed a 50% effective concentration (EC50) of 2.31 µM.

Molecule `O=C(O)c1cc(-c2ccc(F)cc2F)ccc1O` showed an EC50 of 25.7 µM.

The molecule `CCn1c(=O)n(CC)c2cc(S(=O)(=O)N3CCC(c4ccccc4)CC3)ccc21` [1,3-diethyl-5-(4-phenylpiperidin-1-yl)sulfonyl-benzimidazol-2-one] came in with a concentration for a half-maximal effect (EC50) of 10.8 µM.

For the molecule `O=C(c1cc2c(s1)-c1ccccc1OC2)N1CCC2(CC1)OCCO2` [1,4-dioxa-8-azaspiro[4.5]decan-8-yl(4H-thieno[3,2-c][1]benzopyran-2-yl)methanone], the concentration giving a half-maximal response (EC50) worked out at 24.9 µM.

Take `CCOc1ccccc1CNC(=O)C1CCN(c2nc3ccccc3o2)CC1` [1-(1,3-benzoxazol-2-yl)-N-(2-ethoxybenzyl)isonipecotamide]: under setting [1], the response was half-maximal at 95.9 µM (EC50).

Molecule `O=C(CSc1nnc(C2CC2)n1Cc1ccccc1)c1cc2ccccc2o1` [1-(1-benzofuran-2-yl)-2-[(4-benzyl-5-cyclopropyl-1,2,4-triazol-3-yl)sulfanyl]ethanone] yielded an EC50 of 21.2 µM.

`Cc1ccc(Nc2nnc(SCC(=O)c3cc4ccccc4o3)s2)cc1C` [1-(1-benzofuran-2-yl)-2-[[5-(3,4-dimethylanilino)-1,3,4-thiadiazol-2-yl]sulfanyl]ethanone] returned an EC50 under setting [1] of 0.0853 µM.

In the case of `O=C(CC(C(=O)N1CCc2ccccc21)n1ccnc1)N1CCc2ccccc2C1` (centres undefined) [1-(2,3-dihydroindol-1-yl)-4-(3,4-dihydro-1H-isoquinolin-2-yl)-2-(1-imidazolyl)butane-1,4-dione], the midpoint of the response, the EC50, lay at 1770 µM.

Regarding `CC1Cc2ccccc2N1C(=O)CSc1nnc(CNc2ccccc2)o1` (centres undefined) [1-(2-Methyl-2,3-dihydro-indol-1-yl)-2-(5-phenylaminomethyl-[1,3,4]oxadiazol-2-ylsulfanyl)-ethanone], the EC50 turned out to be 0.941 µM.

As to `S=C(NCc1ccccc1Cl)Nc1ccccc1Cl` [1-(2-chlorobenzyl)-3-(2-chlorophenyl)thiourea], the EC50 was found to be 204 µM.

`CC1Cc2ccccc2N1C(=O)CSc1nnnn1Cc1ccccc1` (centres undefined) [1-(2-methyl-2,3-dihydroindol-1-yl)-2-[[1-(phenylmethyl)-1,2,3,4-tetrazol-5-yl]sulfanyl]ethanone] returned an EC50 of 13.6 µM.

`CSc1ccccc1N=C(S)Nc1ccc(S(N)(=O)=O)cc1` [1-(2-methylsulfanylphenyl)-3-(4-sulfamoylphenyl)thiourea] showed a half-maximal effective concentration (EC50) of 38.4 µM.

`C=CCn1c(Cc2cccs2)nnc1SCC(=O)c1ccc2ccccc2c1` [1-(2-naphthalenyl)-2-[[4-prop-2-enyl-5-(thiophen-2-ylmethyl)-1,2,4-triazol-3-yl]thio]ethanone] yielded a 50% effective concentration (EC50) of 4.42 µM.

`Cc1oc(-c2ccccc2)nc1C[S+]([O-])CC(=O)N1CCc2ccccc2C1` (centres undefined) [1-(3,4-dihydro-1H-isoquinolin-2-yl)-2-[(5-methyl-2-phenyl-1,3-oxazol-4-yl)methylsulfinyl]ethanone]: the EC50 stood at 7.74 µM.

For `COc1ccc(-c2nc(C[S+]([O-])CC(=O)N3CCc4ccccc4C3)c(C)o2)cc1` (centres undefined) [1-(3,4-dihydro-1H-isoquinolin-2-yl)-2-[[2-(4-methoxyphenyl)-5-methyl-1,3-oxazol-4-yl]methylsulfinyl]ethanone], the EC50 under setting [1] came to 1410 µM.

Turning to `Cc1cccc(-c2nc(C[S+]([O-])CC(=O)N3CCc4ccccc4C3)c(C)o2)c1` (centres undefined) [1-(3,4-dihydro-1H-isoquinolin-2-yl)-2-[[5-methyl-2-(3-methylphenyl)-1,3-oxazol-4-yl]methylsulfinyl]ethanone], the midpoint of the response, the EC50, lay at 7.28 µM.

The molecule `S=C(NN=Cc1cccc2ccccc12)Nc1cccc(Cl)c1` [1-(3-chlorophenyl)-3-(1-naphthalenylmethylideneamino)thiourea] came in with an EC50 of 11 µM.

Regarding `O=C(c1ccc(N2CCCCCC2)c([N+](=O)[O-])c1)N1CCc2ccccc21` [1-(4-azepan-1-yl-3-nitrobenzoyl)indoline], it took 0.373 µM to reach a half-maximal effect (EC50).

Turning to `Cc1c(C(=O)NCCSCc2ccc(F)cc2)cnn1-c1ccc(Cl)cc1` [1-(4-chlorophenyl)-N-[2-[(4-fluorobenzyl)thio]ethyl]-5-methyl-pyrazole-4-carboxamide], the 50% effective concentration (EC50) came to 6.18 µM.

`O=C(CSc1nnc(Cc2ccccc2)o1)c1ccc(F)cc1` [1-(4-fluorophenyl)-2-[[5-(phenylmethyl)-1,3,4-oxadiazol-2-yl]sulfanyl]ethanone] registered a half-maximal effective concentration (EC50) of 2.39 µM.

With `COc1ccc(C(=O)CSc2nnnn2Cc2ccccc2)cc1` [1-(4-methoxyphenyl)-2-[[1-(phenylmethyl)-1,2,3,4-tetrazol-5-yl]sulfanyl]ethanone], it took 1.68 µM to reach a half-maximal effect under setting [1] (EC50).

Consider `COc1ccc(N2C(=S)N=C(Nc3cccc(C)c3)C23CCCCC3)cc1` [1-(4-methoxyphenyl)-4-(3-methylanilino)-1,3-diazaspiro[4.5]dec-3-ene-2-thione], for which it took 771 µM to reach a half-maximal effect (EC50).

`Cc1ccc(S(=O)(=O)N2CCC(=O)N(C(COCc3ccccc3)Cc3ccccc3)CC2)cc1` (centres undefined) [1-(4-methylphenyl)sulfonyl-4-(1-phenyl-3-phenylmethoxy-propan-2-yl)-1,4-diazepan-5-one]: a half-maximal effect (EC50) was put at 1.69 µM.

`S=C(NCc1cccnc1)Nc1ccc(Oc2ccccc2)cc1` [1-(4-phenoxyphenyl)-3-(3-pyridinylmethyl)thiourea] came in with a 50% effective concentration (EC50) of 8.45 µM.

The molecule `Cc1cccc(Nc2nnc(SCC(=O)c3ccc(Br)s3)s2)c1C` [1-(5-bromanylthiophen-2-yl)-2-[[5-[(2,3-dimethylphenyl)amino]-1,3,4-thiadiazol-2-yl]sulfanyl]ethanone] showed a concentration giving a half-maximal response (EC50) of 1.41 µM.

With `Cc1ccc(Nc2nnc(SCC(=O)c3ccc(Br)s3)s2)c(C)c1` [1-(5-bromanylthiophen-2-yl)-2-[[5-[(2,4-dimethylphenyl)amino]-1,3,4-thiadiazol-2-yl]sulfanyl]ethanone], a half-maximal effect (EC50) was put at 2.31 µM.

`O=S(=O)(NCc1ccccc1)c1ccc(Cl)c(S(=O)(=O)NCc2ccccc2)c1` [1-N,3-N-dibenzyl-4-chlorobenzene-1,3-disulfonamide] came in with an EC50 of 2.34 µM.

`CC(C)(CN=C(S)NCCc1ccccc1)CN=C(S)NCCc1ccccc1` [1-[2,2-dimethyl-3-(2-phenylethylcarbamothioylamino)propyl]-3-(2-phenylethyl)thiourea] registered an EC50 of 165 µM.

With `Cc1ccc2oc(-c3ccc(C)c(NC(=S)NC(=O)c4cccs4)c3)nc2c1` [1-[2-Methyl-5-(5-methyl-benzooxazol-2-yl)-phenyl]-3-(thiophene-2-carbonyl)-thiourea], the concentration giving a half-maximal response (EC50) worked out at 2.05 µM.

As to `CCC(c1nnc(SCc2nc3ccccc3s2)n1Cc1ccccc1)N(C)C` (centres undefined) [1-[5-(1,3-benzothiazol-2-ylmethylsulfanyl)-4-(phenylmethyl)-1,2,4-triazol-3-yl]-N,N-dimethyl-propan-1-amine], the EC50 was found to be 14.7 µM.

Turning to `CN(Cc1ccccc1)c1nc2nonc2nc1N1CCCC(CN2CCCC2=O)C1` (centres undefined) [1-[(1-{6-[benzyl(methyl)amino][1,2,5]oxadiazolo[3,4-b]pyrazin-5-yl}piperidin-3-yl)methyl]pyrrolidin-2-one], a half-maximal effect (EC50) was put at 2.43 µM.

In turn, `S=C(NCCc1ccccc1)NN=Cc1cccc(Cl)c1Cl` [1-[(2,3-dichlorobenzylidene)amino]-3-phenethyl-thiourea] had an EC50 of 47.6 µM.

On to `Fc1cccc(F)c1C=NNC(=S)Nc1cccnc1` [1-[(2,6-difluorobenzylidene)amino]-3-(3-pyridyl)thiourea], for which the EC50 turned out to be 6.93 µM.

In turn, `NC(=S)NN=C1C(=O)N(Cc2ccc(F)cc2)c2ccccc21` [1-[(Z)-[1-[(4-fluorophenyl)methyl]-2-oxidanylidene-indol-3-ylidene]amino]thiourea] gave an EC50 of 144 µM.

Take `NC(=S)NN=C1C(=O)N(Cc2ccccc2)c2ccccc21` [1-[(Z)-[2-oxidanylidene-1-(phenylmethyl)indol-3-ylidene]amino]thiourea]: the half-maximal effective concentration (EC50) worked out at 0.295 µM.
